# Tested on: airway hyperresponsiveness
# Assay: Experiment on airway hyperresponsiveness (late-phase airway response, APTI)
# Type: in vivo
# Details: sensitized mice, acetylcholine 50 μg/kg i.v.; medicament 1 g three times a day intragastric for 17 days; dexamethasone 0.5 ml/kg i.p. daily
# Experimental: According to the Above Embodiments 13-18, an Experiment on Airway Hyperresponsiveness was Conducted, with an Experimental Method and Effects being Shown Below:
# (1) mice for the experiment: the male mice for this experiment were 6 weeks old;
# (2) dose: the dose for each mouse was 3 g/day, 3 times a day;
# (3) antigen sensitization, allergy attack and treatment: 200 μg of conalbumin (CA) and 2 mg of dinitrobenzene (DNP)-bound albumin were dissolved in 0.3 ml of buffer solution PBS and then […] injected into mice for sensitization twice at an interval of one week. The mice were anesthetized 7 days later after the second sensitization, and were intratracheally provided with 0.05 ml of buffer solution PBS containing 100 μg of conalbumin (CA) to induce an allergy attack. On the 20th day and the 30th day, a further allergy attack was induced by the same method at twice dose. The mice having an allergy attack were divided into 9 groups 24 hours later after the first allergy attack. […]
# (4) measurement of late-phase airway response: on the third day after the last allergy attack, the mice of the above 8 groups were intravenously injected with acetylcholine, and then the airway pressure changes of these mice and those of group 9 were all measured to reflect airway responses. […]
smiles,measurement,value
C[C@@H]1C[C@H]2[C@@H]3CCC4=CC(=O)C=C[C@]4(C)[C@@]3(F)[C@@H](O)C[C@]2(C)[C@@]1(O)C(=O)CO [dexamethasone],APTI (airway pressure-time index),565 ± 31 centimeter water column per second
